Among the data in patent US11453647B2, “Benzimidazole derivatives as adenosine receptor antagonists” (Merck Patent GmbH, priority 2017, dated 2022) are IC50 values, retold here.

What all share (format): cell-based
One test has as its target T1, human A1 receptor (Homo sapiens, UniProt P30542).
T1 construct: expressed in transfected cells; host or cells: CHO
T1 sequence (P30542 1-326): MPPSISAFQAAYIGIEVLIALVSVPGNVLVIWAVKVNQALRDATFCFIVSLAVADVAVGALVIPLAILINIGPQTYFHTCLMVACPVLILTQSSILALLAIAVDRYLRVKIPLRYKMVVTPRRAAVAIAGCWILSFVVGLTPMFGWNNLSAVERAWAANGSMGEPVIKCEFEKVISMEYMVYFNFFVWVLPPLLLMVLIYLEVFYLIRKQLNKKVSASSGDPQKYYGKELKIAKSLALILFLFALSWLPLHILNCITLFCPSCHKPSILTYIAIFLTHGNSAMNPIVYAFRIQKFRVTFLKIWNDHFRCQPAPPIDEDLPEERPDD
Description: functional cAMP (HTRF) assay, recombinant CHO cells expressing human A1 receptor, forskolin, agonist CPA. As for the experimental part:
(§1) The functional activities of human A2A, A2B, A1 and A3 receptors were determined by quantification of cAMP, being the second messenger for adenosine receptors.
(§2) For human A1 and A3 receptors, recombinant CHO cells, expressing either A1 or A3-receptor, were used. As both receptors couple to Gi proteins, the assay protocol was adapted:
(§3) Cells were seeded into 384-well plates, forskolin, test compounds and agonists (CPA for A1- and IB-MECA for A3-receptor) were added. After 30 min incubation, HTRF reagents (cAMP dynamic 2, Cis Bio) were added and the cellular cAMP levels were determined using the ENVISION (Perkin Elmer) plate reader. Obtained raw data were normalized against the inhibitor control and the neural control (DMSO) and the normalized data were fitted using GeneData software.
In general terms: TR-FRET usually uses a lanthanide donor and a delayed reading to cut background.

Another test has as its target T2, human A2A receptor (Homo sapiens, UniProt P29274).
T2 construct: expressed in transfected cells; host or cells: HEK293
Kind of test: functional cAMP (HTRF) assay, recombinant HEK293 cells expressing human A2A receptor, agonist NECA.

A further test addresses T3, A2B receptors (Homo sapiens, UniProt P29275).
T3 sequence (P29275 1-332): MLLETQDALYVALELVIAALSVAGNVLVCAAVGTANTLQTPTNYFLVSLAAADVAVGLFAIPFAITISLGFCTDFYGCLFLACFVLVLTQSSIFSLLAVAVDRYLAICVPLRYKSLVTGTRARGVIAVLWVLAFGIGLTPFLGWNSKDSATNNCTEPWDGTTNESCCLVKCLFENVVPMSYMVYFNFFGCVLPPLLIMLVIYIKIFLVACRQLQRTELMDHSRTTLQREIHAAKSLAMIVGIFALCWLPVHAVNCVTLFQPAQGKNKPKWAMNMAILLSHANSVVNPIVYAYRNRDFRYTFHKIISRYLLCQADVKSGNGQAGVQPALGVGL
Kind of test: functional cAMP (HTRF) assay, recombinant HEK293 cells expressing human A2B receptor, agonist NECA. Also on record: expressed in transfected cells; host or cells: HEK293.

The next test has as its target T4, human A3 receptor (Homo sapiens, UniProt P0DMS8).
T4 construct: expressed in transfected cells; host or cells: CHO
T4 sequence (P0DMS8 1-318): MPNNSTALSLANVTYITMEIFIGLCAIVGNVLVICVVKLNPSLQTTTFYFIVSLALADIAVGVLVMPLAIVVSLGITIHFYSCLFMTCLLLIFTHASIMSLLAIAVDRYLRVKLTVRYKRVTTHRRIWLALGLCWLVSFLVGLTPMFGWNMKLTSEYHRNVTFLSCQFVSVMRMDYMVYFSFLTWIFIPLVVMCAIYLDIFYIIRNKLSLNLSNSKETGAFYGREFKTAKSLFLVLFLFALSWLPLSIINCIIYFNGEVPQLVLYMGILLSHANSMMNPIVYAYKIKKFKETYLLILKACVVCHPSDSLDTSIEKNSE
Kind of test: functional cAMP (HTRF) assay, recombinant CHO cells expressing human A3 receptor, forskolin, agonist IB-MECA. As for the experimental part:
as §1, §2, §3

SMILES strings stand for the structures. Some results are limits rather than exact numbers.

T2 sequence (P29274 whole entry): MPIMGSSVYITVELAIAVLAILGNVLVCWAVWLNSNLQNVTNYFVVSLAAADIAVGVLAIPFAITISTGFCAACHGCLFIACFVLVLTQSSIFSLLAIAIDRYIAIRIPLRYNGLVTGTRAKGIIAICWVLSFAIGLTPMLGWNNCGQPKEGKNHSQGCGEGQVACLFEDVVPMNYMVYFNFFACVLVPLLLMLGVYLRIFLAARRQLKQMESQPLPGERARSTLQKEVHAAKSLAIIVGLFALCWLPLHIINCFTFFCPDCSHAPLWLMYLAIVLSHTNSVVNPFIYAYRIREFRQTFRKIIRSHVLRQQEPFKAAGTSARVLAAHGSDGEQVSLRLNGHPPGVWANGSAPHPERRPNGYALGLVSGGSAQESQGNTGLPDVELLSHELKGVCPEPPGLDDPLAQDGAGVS

With `COc1ccc(-c2ccccc2)c2nc(NC(=O)c3ccc(CCl)cc3)[nH]c12` [compound 10, 4-Chloromethyl-N-(7-methoxy-4-phenyl-1H-benzoimidazol-2-yl)-benzamide], the IC50 (in general, the point on the concentration scale where inhibition reaches its midpoint) on human A1 receptor was greater than 1000 nM; on human A2A receptor, less than 10 nM; on A2B receptors, less than 100 nM.
Take `COc1ccc(-c2ccncc2)c2nc(NC(=O)c3ccc(CN(C)C)cc3)[nH]c12` [compound 89, 4-[(dimethylamino)methyl]-N-[7-methoxy-4-(pyridin-4-yl)-1H-1,3-benzodiazol-2-yl]benzamide]: the IC50 at human A3 receptor is greater than 1000 nM; at human A2A receptor, less than 100 nM; at A2B receptors, less than 1000 nM.
Regarding `COc1ccc(C2CCOCC2)c2nc(NC(=O)c3ccnc(N4CCC(C)(O)CC4)c3)[nH]c12` [compound 118, 2-(4-hydroxy-4-methylpiperidin-1-yl)-N-[7-methoxy-4-(oxan-4-yl)-1H-1,3-benzodiazol-2-yl]pyridine-4-carboxamide], the concentration for half-maximal inhibition (IC50) is greater than 1000 nM at human A1 receptor, less than 10 nM at human A2A receptor and greater than 1000 nM at A2B receptors.
Take `COc1ccc(-c2cnn(C)c2)c2nc(NC(=O)c3cncs3)[nH]c12` [compound 219, N-[7-methoxy-4-(1-methyl-1H-pyrazol-4-yl)-1H-1,3-benzodiazol-2-yl]-1,3-thiazole-5-carboxamide]: the IC50 at human A1 receptor is less than 1000 nM; on human A2A receptor, less than 10 nM; at A2B receptors, less than 10 nM.
On to `COc1ccc(C2CCOCC2)c2nc(NC(=O)c3cnc(C)s3)[nH]c12` [compound 227, N-[7-methoxy-4-(oxan-4-yl)-1H-1,3-benzodiazol-2-yl]-2-methyl-1,3-thiazole-5-carboxamide], for which the results for the 50% inhibitory concentration (IC50) on human A1 receptor, at human A2A receptor and on A2B receptors were greater than 1000 nM, less than 10 nM and less than 100 nM, respectively.
Take `COc1ccc(C2CCOCC2)c2nc(NC(=O)NCc3nccs3)[nH]c12` [compound 228, 3-[7-methoxy-4-(oxan-4-yl)-1H-1,3-benzodiazol-2-yl]-1-[(1,3-thiazol-2-yl)methyl]urea]: the IC50 at human A1 receptor is greater than 1000 nM; on human A2A receptor, less than 100 nM.
In the case of `COc1ccc(-c2ccccc2F)c2nc(NC(=O)c3cnn(C)c3)[nH]c12` [compound 243, N-[4-(2-fluorophenyl)-7-methoxy-1H-1,3-benzodiazol-2-yl]-1-methyl-1H-pyrazole-4-carboxamide], the half-maximal inhibitory concentration (IC50) was less than 1000 nM on human A1 receptor, less than 10 nM on human A2A receptor and less than 10 nM on A2B receptors.
In the case of `COc1ccc(C2CCOCC2)c2nc(NC(=O)c3ccc(N4C(=O)CCC4=O)cc3)[nH]c12` [compound 250, 4-(2,5-dioxopyrrolidin-1-yl)-N-[7-methoxy-4-(oxan-4-yl)-1H-1,3-benzodiazol-2-yl]benzamide], the figures for the IC50 at human A3 receptor, at human A2A receptor and at A2B receptors were greater than 1000 nM, less than 10 nM and less than 100 nM, respectively.
As for `COc1ccc(-c2ccccc2)c2nc(NC(=O)c3cncn3C)[nH]c12` [compound 254, N-(7-methoxy-4-phenyl-1H-1,3-benzodiazol-2-yl)-1-methyl-1H-imidazole-5-carboxamide], the concentration for half-maximal inhibition (IC50) on human A1 receptor was less than 1000 nM; at human A2A receptor, less than 10 nM; on A2B receptors it was less than 10 nM.
Consider `COc1cc(F)c(C2CCOCC2)c2nc(NC(=O)c3ccc(C(=O)N(C)C)cc3)[nH]c12` [compound 277, N4-[5-fluoro-7-methoxy-4-(oxan-4-yl)-1H-1,3-benzodiazol-2-yl]-N1,N1-dimethylbenzene-1,4-dicarboxamide], for which the IC50 at human A3 receptor was greater than 1000 nM; on human A2A receptor, less than 100 nM; on A2B receptors, less than 100 nM.
As for `COc1ccc(-c2ccccc2)c2nc(NC(=O)c3cnc4cccnn34)[nH]c12` [compound 288, N-(7-methoxy-4-phenyl-1H-1,3-benzodiazol-2-yl)imidazo[1,2-b]pyridazine-3-carboxamide], the concentration for half-maximal inhibition (IC50) on human A3 receptor was less than 1000 nM; on human A2A receptor, less than 100 nM; on A2B receptors, less than 100 nM.
For `CCCNC(=O)c1ccc(C(=O)Nc2nc3c(OC)ccc(-c4ccccc4)c3[nH]2)cc1` [compound 293, N1-(4-methoxy-7-phenyl-1H-1,3-benzodiazol-2-yl)-N4-propylbenzene-1,4-dicarboxamide], the 50% inhibitory concentration (IC50) is less than 1000 nM on human A3 receptor, less than 100 nM at human A2A receptor and less than 100 nM on A2B receptors.
Turning to `COc1ccc(-c2ccccc2)c2[nH]c(NC(=O)c3ccc(C(=O)N4CCN(C)CC4)cc3)nc12` [compound 294, N-(4-methoxy-7-phenyl-1H-1,3-benzodiazol-2-yl)-4-(4-methylpiperazine-1-carbonyl)benzamide], the figures for the concentration for half-maximal inhibition (IC50) on human A3 receptor, on human A2A receptor and on A2B receptors were less than 1000 nM, less than 100 nM and less than 10 nM, respectively.
In the case of `COCCN(C)C(=O)c1ccc(C(=O)Nc2nc3c(OC)ccc(-c4ccccc4)c3[nH]2)cc1` [compound 295, N4-(4-methoxy-7-phenyl-1H-1,3-benzodiazol-2-yl)-N1-(2-methoxyethyl)-N1-methylbenzene-1,4-dicarboxamide], the IC50 was less than 1000 nM at human A3 receptor, less than 100 nM on human A2A receptor and less than 100 nM on A2B receptors.
On to `COc1ccc(-c2ccccc2)c2[nH]c(NC(=O)c3ccc(C(=O)N(C)CCN(C)C)cc3)nc12` [compound 296, N1-[2-(dimethylamino)ethyl]-N4-(4-methoxy-7-phenyl-1H-1,3-benzodiazo1-2-yl)-N1-methylbenzene-1,4-dicarboxamide], for which the half-inhibitory concentration (IC50) at human A3 receptor is less than 1000 nM; at human A2A receptor it was less than 100 nM; on A2B receptors, less than 10 nM.
With `CCCN(C)C(=O)c1ccc(C(=O)Nc2nc3c(OC)ccc(-c4ccccc4)c3[nH]2)cc1` [compound 297, N4-(4-methoxy-7-phenyl-1H-1,3-benzodiazol-2-yl)-N1-methyl-N1-propylbenzene-1,4-dicarboxamide], the results for the IC50 on human A3 receptor, at human A2A receptor and on A2B receptors were less than 1000 nM, less than 100 nM and less than 100 nM, respectively.
Take `COc1ccc(-c2ccccc2)c2[nH]c(NC(=O)c3ccc(C(=O)N4CCOCC4)cc3)nc12` [compound 298, N-(4-methoxy-7-phenyl-1H-1,3-benzodiazol-2-yl)-4-(morpholine-4-carbonyl)benzamide]: the results for the IC50 at human A3 receptor, on human A2A receptor and on A2B receptors were less than 1000 nM, less than 100 nM and less than 10 nM, respectively.
For the compound `COCCn1cc(C(=O)Nc2nc3c(-c4cccc5cc[nH]c45)ccc(OC)c3[nH]2)cn1` [compound 304, N-[4-(1H-indol-7-yl)-7-methoxy-1H-1,3-benzodiazol-2-yl]-1-(2-methoxyethyl)-1H-pyrazole-4-carboxamide], the IC50 was less than 1000 nM on human A3 receptor, less than 100 nM at human A2A receptor and less than 100 nM on A2B receptors.
Regarding `COc1ccc(-c2cccc3cc[nH]c23)c2nc(NC(=O)N3CCC(C)(O)CC3)[nH]c12` [compound 305, 4-hydroxy-N-[4-(1H-indol-7-yl)-7-methoxy-1H-1,3-benzodiazol-2-yl]-4-methylpiperidine-1-carboxamide], the IC50 is greater than 1000 nM on human A3 receptor, less than 100 nM at human A2A receptor and less than 100 nM on A2B receptors.
As to `COc1ccc(-c2ccccc2)c2nc(NC(=O)N3CCC4(CCOCC4)C3)[nH]c12` [compound 310, N-(7-methoxy-4-phenyl-1H-1,3-benzodiazol-2-yl)-8-oxa-2-azaspiro[4.5]decane-2-carboxamide], the IC50 on human A3 receptor is greater than 1000 nM; at human A2A receptor, less than 100 nM; at A2B receptors, less than 100 nM.
As for `COc1ccc(-c2ccccc2)c2nc(NC(=O)c3ccc(CN4CCCC4=O)cc3)[nH]c12` [compound 311, N-(7-methoxy-4-phenyl-1H-1,3-benzodiazol-2-yl)-4-[(2-oxopyrrolidin-1-yl)methyl]benzamide], the IC50 is less than 1000 nM on human A3 receptor, less than 100 nM on human A2A receptor and less than 10 nM on A2B receptors.
For the compound `COc1ccc(N2CCCOCC2)c2nc(NC(=O)c3ccc(C(=O)N(C)C)cc3)[nH]c12` [compound 313, N4-[7-methoxy-4-(1,4-oxazepan-4-yl)-1H-1,3-benzodiazol-2-yl]-N1,N1-dimethylbenzene-1,4-dicarboxamide], the half-inhibitory concentration (IC50) was greater than 1000 nM on human A3 receptor, less than 10 nM at human A2A receptor and greater than 1000 nM at A2B receptors.
